In the test the target is human opioid receptor-like (ORL-1) (Homo sapiens (Human), UniProt P41146). In words: In vitro ORL-1 receptor [35S]GTPγS functional assay. It counts as biochemical. A general note: Binding of GTPγS marks nucleotide exchange on a G protein.

Structures are written as SMILES.

Sequence of human opioid receptor-like (ORL-1) (P41146 whole entry): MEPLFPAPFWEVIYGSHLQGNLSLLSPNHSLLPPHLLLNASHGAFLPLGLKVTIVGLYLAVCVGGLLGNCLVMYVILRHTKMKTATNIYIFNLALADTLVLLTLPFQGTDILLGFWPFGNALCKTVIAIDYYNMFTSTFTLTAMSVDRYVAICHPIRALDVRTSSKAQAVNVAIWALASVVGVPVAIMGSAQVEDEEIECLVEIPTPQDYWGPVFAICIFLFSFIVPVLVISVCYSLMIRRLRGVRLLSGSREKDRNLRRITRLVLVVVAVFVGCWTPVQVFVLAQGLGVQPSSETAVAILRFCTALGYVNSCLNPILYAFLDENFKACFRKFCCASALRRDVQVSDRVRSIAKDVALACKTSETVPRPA

As for `O=C(O)CN1CCC[C@@H]1c1nc2ccccc2n1[C@H]1C[C@H]2CCC[C@@H](C1)N2C1CCCCCCCCC1` [E30c(ii), 2-((R)-2-(1-((1R,3r,5S)-9-cyclodecyl-9-azabicyclo[3.3.1]nonan-3-yl)-1H-benzo[d]imidazol-2-yl)pyrrolidin-1-yl)acetic acid], the EC50 was 336 ± 27 nM.

In turn, `O=C(O)CCN1CC[C@H](c2nc3ccccc3n2[C@H]2C[C@H]3CCC[C@@H](C2)N3[C@@H]2C[C@@H]3CCCC[C@@H](C3)C2)C1` [H32d(ii), 3-((S)-3-(1-((1R,3R,5S)-9-((1R,6S,8s)-bicyclo[4.3.1]decan-8-yl)-9-azabicyclo[3.3.1]nonan-3-yl)-1H-benzo[d]imidazol-2-yl)pyrrolidin-1-yl)propanoic acid] gave an EC50 of 160 ± 35 nM.

For the compound `O=C(O)CN1CCC(c2nc3ccccc3n2[C@H]2C[C@H]3CCC[C@@H](C2)N3[C@@H]2C[C@@H]3CCCC[C@@H](C3)C2)CC1` [ZA07, 2-(4-(1-((1R,3R,5S)-9-((1R,6S,8s)-bicyclo[4.3.1]decan-8-yl)-9-azabicyclo[3.3.1]nonan-3-yl)-1H-benzo[d]imidazol-2-yl)piperidin-1-yl)acetic acid], a half-maximal response (EC50) required 140 ± 17 nM.

In turn, `O=C(O)CCN1CCC(c2nc3ccccc3n2[C@H]2C[C@H]3CCC[C@@H](C2)N3[C@@H]2C[C@@H]3CCCC[C@@H](C3)C2)CC1` [ZA08, 3-(4-(1-((1R,3R,5S)-9-((1R,6S,8s)-bicyclo[4.3.1]decan-8-yl)-9-azabicyclo[3.3.1]nonan-3-yl)-1H-benzo[d]imidazol-2-yl)piperidin-1-yl)propanoic acid] gave an EC50 of 253 ± 20 nM.

On to `COCCOCCOCCN1CCC[C@@H](c2nc3ccccc3n2[C@H]2C[C@H]3CCC[C@@H](C2)N3[C@H]2C[C@@H]3CCC[C@@H](C3)C2)C1` [ZA11, (1R,1′R,3r,3′R,5S,5′S)-3′-(2-((R)-1-(2-(2-(2-methoxyethoxy)ethoxy)ethyl)piperidin-3-yl)-1H-benzo[d]imidazol-1-yl)-9′-aza-3,9′-bi(bicyclo[3.3.1]nonane)], for which a half-maximal effect (EC50) was put at 502 ± 99 nM.

In turn, `COCCOCCOCCN1CCC[C@H](c2nc3ccccc3n2[C@H]2C[C@H]3CCC[C@@H](C2)N3[C@H]2C[C@@H]3CCC[C@@H](C3)C2)C1` [ZA12, (1R,1′R,3r,3′R,5S,5′S)-3′-(2-((S)-1-(2-(2-(2-methoxyethoxy)ethoxy)ethyl)piperidin-3-yl)-1H-benzo[d]imidazol-1-yl)-9′-aza-3,9′-bi(bicyclo[3.3.1]nonane)] had a concentration giving a half-maximal response (EC50) of 390 ± 34 nM.

Regarding `O=C(O)C1CCN(Cc2nc3ccccc3n2[C@H]2C[C@H]3CCC[C@@H](C2)N3[C@H]2C[C@@H]3CCC[C@@H](C3)C2)CC1` [ZA23, 1-((1-((1R,1′R,3r,3′R,5S,5′S)-[3,9′-bi(9′-azabicyclo[3.3.1]nonan)]-3′-yl)-1H-benzo[d]imidazol-2-yl)methyl)piperidine-4-carboxylic acid], the EC50 is more than 20000 nM.

For the compound `c1ccc2c(c1)nc(-c1nnn[nH]1)n2[C@H]1C[C@H]2CCC[C@@H](C1)N2[C@@H]1C[C@@H]2CCCC[C@@H](C2)C1` [ZA39, 1-((1R,3R,5S)-9-((1R,6S,8r)-bicyclo[4.3.1]decan-8-yl)-9-azabicyclo[3.3.1]nonan-3-yl)-2-(1H-tetrazol-5-yl)-1H-benzo[d]imidazole], the EC50 was more than 20000 nM.

In the case of `COc1cnc(-c2nc3ccccc3n2[C@H]2C[C@H]3CCC[C@@H](C2)N3[C@@H]2C[C@@H]3CCCC[C@@H](C3)C2)cn1` [ZA42, 1-((1R,3R,5S)-9-((1R,6S,8r)-bicyclo[4.3.1]decan-8-yl)-9-azabicyclo[3.3.1]nonan-3-yl)-2-(5-methoxypyrazin-2-yl)-1H-benzo[d]imidazole], the EC50 was more than 20000 nM.

`COc1cnc(-c2nc3ccccc3n2[C@H]2C[C@H]3CCC[C@@H](C2)N3[C@H]2C[C@@H]3CCC[C@@H](C3)C2)cn1` [ZA63, (1R,1′R,3r,3′R,5S,5′S)-3′-(2-(5-methoxypyrazin-2-yl)-1H-benzo[d]imidazol-1-yl)-9′-aza-3,9′-bi(bicyclo[3.3.1]nonane)] registered an EC50 of more than 20000 nM.

Take `O=c1cc(-c2nc3ccccc3n2[C@H]2C[C@H]3CCC[C@@H](C2)N3[C@@H]2C[C@@H]3CCCC[C@@H](C3)C2)[nH]c(=O)[nH]1` [ZA71, 6-(1-((1R,3R,5S)-9-((1R,6S,8r)-bicyclo[4.3.1]decan-8-yl)-9-azabicyclo[3.3.1]nonan-3-yl)-1H-benzo[d]imidazol-2-yl)pyrimidine-2,4(1H,3H)-dione]: the EC50 is more than 20000 nM.

The term EC50 denotes the concentration giving half of the maximal effect. High values mean a need for much substance, low ones an effect from little substance.
